Laboratory results from ChEMBL document CHEMBL1201862, “PubChem BioAssay data set” (2004).
Calls of active or inactive are those of the source.

Experiments:
[1] = molecular target: Peroxisome proliferator-activated receptor gamma/Nuclear receptor coactivator 3 (Homo sapiens, UniProt P37231); experiment: TR-FRET dose response biochemical High Throughput Screening assay for agonists of the steroid receptor coactivator 3 (SRC-3) recruitment by the peroxisome proliferator-activated receptor gamma (PPAR gamma): non-selective agonists. [Related pubchem assays: 1301 (Confirmation screen.), 1048 (Primary screen.)]; assay type: functional
[2] = molecular target: Peroxisome proliferator-activated receptor gamma/Nuclear receptor coactivator 2 (Homo sapiens, UniProt P37231); experiment: (§1) TR-FRET dose response biochemical High Throughput Screening assay for agonists of the steroid receptor coactivator 2 (SRC-2) recruitment by the peroxisome proliferator-activated receptor gamma (PPAR gamma): non-selective agonists. [Related pubchem assays: 1297, 1032 ]; assay type: functional
[3] = molecular target: Peroxisome proliferator-activated receptor gamma/Nuclear receptor coactivator 1 (Homo sapiens, UniProt P37231); experiment: as §1, with “1 (SRC-1)” for “2 (SRC-2)”, “assays (depositor defined):AID1300, AID1808, AID504735, AID631]” for “assays: 1297, 1032 ]”; assay type: protein assay
[4] = molecular target: Glyceraldehyde-3-phosphate dehydrogenase (Homo sapiens, UniProt P04406)
[5] = molecular target: T1, Alkaline phosphatase, tissue-nonspecific isozyme (Homo sapiens, UniProt P05186); experiment: potency against alkaline phosphatase TNAP – biochemical, luminescent, dose response, SAR follow-up (AID 1056)
T1 sequence (P05186 whole entry): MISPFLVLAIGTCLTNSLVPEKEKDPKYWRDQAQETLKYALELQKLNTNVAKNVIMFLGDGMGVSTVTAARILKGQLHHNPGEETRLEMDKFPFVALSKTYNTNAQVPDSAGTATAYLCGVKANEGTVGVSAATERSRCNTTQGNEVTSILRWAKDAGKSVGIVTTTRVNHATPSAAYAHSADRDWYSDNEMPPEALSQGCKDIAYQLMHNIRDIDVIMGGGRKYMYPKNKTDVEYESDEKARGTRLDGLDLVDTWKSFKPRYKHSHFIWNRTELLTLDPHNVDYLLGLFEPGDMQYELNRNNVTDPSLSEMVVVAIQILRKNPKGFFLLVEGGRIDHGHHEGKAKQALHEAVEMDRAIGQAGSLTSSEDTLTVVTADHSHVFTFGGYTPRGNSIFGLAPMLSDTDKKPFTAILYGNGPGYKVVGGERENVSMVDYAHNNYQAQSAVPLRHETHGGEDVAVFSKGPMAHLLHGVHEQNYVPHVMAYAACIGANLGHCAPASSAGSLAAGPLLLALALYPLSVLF

[6] = molecular target: Nonstructural protein 1 (Influenza A virus, UniProt Q194T2); assay type: functional, Influenza A virus (A/California/07/2009(H1N1))
[7] = tested on: HeLa; experiment: viability loss in HeLa cells – cell-based, 24 h, cherry-picked samples, cytotoxicity control, dose response (AID 504726); assay type: functional; details: Homo sapiens;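 further: potency for cytotoxicity as loss of luminescence signal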
[8] = tested on: HEK293; experiment: optical interference in Abeta FP readout, dose response, artefact control for IDE activator project, biochemical, fluorescence polarization (AID 588442); assay type: functional, cell-based; details: Homo sapiens
[9] = molecular target: T2, ORF 73 (Human herpesvirus 8, UniProt O40947); experiment: KSHV LANA DNA-binding disruption – biochemical, fluorescence polarization, cherry-picked samples, dose response (AID 504725); parameters: species or system Human gammaherpesvirus 8;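 further: fluorescence polarization of a labeled DNA duplex reporting LANA DNA binding; potency is for inhibitors that block LANA binding to the DNA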
T2 sequence (O40947 whole entry): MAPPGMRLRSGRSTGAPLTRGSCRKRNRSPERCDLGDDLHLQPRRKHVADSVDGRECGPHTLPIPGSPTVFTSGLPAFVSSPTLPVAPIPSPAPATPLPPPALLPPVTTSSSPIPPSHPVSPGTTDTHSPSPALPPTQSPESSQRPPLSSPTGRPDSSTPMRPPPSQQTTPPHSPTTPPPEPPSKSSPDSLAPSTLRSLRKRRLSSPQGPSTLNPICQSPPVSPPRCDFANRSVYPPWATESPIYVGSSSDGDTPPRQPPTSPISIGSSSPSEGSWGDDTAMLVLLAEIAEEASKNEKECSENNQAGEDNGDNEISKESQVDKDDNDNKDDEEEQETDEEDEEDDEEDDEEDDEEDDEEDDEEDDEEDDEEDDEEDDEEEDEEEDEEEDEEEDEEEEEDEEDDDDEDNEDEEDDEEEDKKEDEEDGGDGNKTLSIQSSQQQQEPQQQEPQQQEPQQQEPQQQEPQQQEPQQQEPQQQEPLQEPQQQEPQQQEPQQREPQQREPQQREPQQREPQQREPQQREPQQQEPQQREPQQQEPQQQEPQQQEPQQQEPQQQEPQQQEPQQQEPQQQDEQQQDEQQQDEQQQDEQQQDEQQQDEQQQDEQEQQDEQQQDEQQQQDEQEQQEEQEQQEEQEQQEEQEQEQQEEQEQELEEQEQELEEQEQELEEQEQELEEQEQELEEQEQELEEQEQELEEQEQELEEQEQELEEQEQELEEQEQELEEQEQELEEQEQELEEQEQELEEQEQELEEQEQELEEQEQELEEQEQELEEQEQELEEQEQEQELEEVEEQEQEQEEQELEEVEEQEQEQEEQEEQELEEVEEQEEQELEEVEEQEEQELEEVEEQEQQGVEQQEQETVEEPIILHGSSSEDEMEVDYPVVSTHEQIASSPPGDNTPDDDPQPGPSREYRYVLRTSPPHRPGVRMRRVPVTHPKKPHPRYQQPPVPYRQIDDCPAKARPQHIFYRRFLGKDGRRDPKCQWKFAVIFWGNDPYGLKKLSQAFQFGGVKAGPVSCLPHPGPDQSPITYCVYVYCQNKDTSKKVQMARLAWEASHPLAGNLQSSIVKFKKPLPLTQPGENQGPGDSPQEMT

[10] = molecular target: T3, Insulin-degrading enzyme (Homo sapiens, UniProt P14735); experiment: recombinant IDE activation, cell-free – biochemical, fluorescence polarization, counter-screen for IDE activator project, dose response (AID 588681)
T3 sequence (P14735 whole entry): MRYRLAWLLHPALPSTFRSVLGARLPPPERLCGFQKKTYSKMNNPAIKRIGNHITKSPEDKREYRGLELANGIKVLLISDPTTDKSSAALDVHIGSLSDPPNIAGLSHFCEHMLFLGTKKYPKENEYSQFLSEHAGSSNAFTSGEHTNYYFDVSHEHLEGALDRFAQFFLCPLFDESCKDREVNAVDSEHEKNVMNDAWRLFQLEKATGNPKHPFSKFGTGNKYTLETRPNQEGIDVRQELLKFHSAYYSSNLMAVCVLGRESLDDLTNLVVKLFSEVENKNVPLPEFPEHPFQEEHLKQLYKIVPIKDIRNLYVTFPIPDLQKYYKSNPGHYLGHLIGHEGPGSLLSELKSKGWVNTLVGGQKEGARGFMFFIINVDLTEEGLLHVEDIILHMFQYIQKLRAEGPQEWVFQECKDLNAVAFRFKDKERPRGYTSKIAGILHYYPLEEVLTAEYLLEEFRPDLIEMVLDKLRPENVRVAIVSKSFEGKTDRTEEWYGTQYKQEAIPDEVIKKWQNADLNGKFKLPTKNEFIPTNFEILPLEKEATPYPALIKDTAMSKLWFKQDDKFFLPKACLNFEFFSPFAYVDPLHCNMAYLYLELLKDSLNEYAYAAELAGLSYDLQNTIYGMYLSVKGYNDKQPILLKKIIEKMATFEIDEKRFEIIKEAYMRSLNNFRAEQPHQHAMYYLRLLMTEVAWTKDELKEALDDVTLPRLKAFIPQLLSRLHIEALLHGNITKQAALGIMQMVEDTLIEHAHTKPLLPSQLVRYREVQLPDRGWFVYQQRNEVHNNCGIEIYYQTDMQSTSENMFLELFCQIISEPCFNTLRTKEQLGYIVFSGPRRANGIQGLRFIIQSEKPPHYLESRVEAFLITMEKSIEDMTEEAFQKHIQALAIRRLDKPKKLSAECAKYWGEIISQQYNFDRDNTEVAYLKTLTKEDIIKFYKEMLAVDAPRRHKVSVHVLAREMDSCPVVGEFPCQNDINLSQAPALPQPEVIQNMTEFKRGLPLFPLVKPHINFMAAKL

[11] = molecular target: T3, Insulin-degrading enzyme; experiment: cellular IDE activation of Abeta substrate cleavage – fluorescence polarization, HEK cells, dose response (AID 588439); assay type: functional, cell-based
[12] = viability loss in HeLa cells – cytotoxicity control for MgcRacGAP inhibitor project, dose response (AID 624300); assay type: functional
[13] = molecular target: T4, Rac GTPase-activating protein 1 (Homo sapiens, UniProt Q9H0H5); experiment: blockers of MgcRacGAP-driven Rac1 GTP hydrolysis – biochemical, ADP Hunter fluorescence, primary and confirmatory, confirmation (AID 624330); assay type: functional
T4 sequence (Q9H0H5 whole entry): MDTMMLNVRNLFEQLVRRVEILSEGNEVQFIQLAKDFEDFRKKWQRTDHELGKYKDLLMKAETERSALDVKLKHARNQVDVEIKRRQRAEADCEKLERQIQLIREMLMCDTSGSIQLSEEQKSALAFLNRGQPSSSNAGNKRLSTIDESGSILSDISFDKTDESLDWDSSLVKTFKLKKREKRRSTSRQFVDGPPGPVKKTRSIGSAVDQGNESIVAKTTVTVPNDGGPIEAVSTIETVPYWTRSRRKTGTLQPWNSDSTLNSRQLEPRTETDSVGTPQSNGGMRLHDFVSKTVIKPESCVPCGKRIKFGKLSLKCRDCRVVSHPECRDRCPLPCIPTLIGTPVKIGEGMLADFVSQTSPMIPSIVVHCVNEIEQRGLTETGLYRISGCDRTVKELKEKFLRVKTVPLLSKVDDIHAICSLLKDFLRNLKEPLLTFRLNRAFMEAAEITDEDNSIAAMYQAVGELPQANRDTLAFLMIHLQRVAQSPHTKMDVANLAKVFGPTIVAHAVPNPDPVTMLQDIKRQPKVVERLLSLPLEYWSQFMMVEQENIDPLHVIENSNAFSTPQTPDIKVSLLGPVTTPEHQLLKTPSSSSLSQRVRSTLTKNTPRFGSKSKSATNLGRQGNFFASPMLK

[14] = tested on: HEK293; experiment: membrane integrity loss in HEK cells – cell-based, fluorescence, cytotoxicity control for IDE activator project, dose response (AID 588440); assay type: functional; details: Homo sapiens;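 further: cytotoxicity by LDH release measuring loss of membrane integrity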

Sequence of Peroxisome proliferator-activated receptor gamma/Nuclear receptor coactivator 3 (P37231 whole entry): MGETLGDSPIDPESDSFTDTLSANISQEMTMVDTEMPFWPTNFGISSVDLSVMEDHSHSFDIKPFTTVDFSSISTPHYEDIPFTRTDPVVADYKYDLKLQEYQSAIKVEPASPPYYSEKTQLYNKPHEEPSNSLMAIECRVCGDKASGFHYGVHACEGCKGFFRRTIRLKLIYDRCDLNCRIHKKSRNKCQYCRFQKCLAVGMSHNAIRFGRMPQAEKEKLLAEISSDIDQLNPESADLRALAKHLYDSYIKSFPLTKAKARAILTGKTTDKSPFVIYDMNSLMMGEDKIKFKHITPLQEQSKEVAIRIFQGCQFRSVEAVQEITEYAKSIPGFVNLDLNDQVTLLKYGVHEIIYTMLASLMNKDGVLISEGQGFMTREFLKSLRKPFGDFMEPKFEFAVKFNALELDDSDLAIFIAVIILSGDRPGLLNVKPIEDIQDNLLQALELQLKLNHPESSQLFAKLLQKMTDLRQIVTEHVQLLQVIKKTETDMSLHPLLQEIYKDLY
Sequence of Peroxisome proliferator-activated receptor gamma/Nuclear receptor coactivator 3 (Q9Y6Q9 whole entry, further chain): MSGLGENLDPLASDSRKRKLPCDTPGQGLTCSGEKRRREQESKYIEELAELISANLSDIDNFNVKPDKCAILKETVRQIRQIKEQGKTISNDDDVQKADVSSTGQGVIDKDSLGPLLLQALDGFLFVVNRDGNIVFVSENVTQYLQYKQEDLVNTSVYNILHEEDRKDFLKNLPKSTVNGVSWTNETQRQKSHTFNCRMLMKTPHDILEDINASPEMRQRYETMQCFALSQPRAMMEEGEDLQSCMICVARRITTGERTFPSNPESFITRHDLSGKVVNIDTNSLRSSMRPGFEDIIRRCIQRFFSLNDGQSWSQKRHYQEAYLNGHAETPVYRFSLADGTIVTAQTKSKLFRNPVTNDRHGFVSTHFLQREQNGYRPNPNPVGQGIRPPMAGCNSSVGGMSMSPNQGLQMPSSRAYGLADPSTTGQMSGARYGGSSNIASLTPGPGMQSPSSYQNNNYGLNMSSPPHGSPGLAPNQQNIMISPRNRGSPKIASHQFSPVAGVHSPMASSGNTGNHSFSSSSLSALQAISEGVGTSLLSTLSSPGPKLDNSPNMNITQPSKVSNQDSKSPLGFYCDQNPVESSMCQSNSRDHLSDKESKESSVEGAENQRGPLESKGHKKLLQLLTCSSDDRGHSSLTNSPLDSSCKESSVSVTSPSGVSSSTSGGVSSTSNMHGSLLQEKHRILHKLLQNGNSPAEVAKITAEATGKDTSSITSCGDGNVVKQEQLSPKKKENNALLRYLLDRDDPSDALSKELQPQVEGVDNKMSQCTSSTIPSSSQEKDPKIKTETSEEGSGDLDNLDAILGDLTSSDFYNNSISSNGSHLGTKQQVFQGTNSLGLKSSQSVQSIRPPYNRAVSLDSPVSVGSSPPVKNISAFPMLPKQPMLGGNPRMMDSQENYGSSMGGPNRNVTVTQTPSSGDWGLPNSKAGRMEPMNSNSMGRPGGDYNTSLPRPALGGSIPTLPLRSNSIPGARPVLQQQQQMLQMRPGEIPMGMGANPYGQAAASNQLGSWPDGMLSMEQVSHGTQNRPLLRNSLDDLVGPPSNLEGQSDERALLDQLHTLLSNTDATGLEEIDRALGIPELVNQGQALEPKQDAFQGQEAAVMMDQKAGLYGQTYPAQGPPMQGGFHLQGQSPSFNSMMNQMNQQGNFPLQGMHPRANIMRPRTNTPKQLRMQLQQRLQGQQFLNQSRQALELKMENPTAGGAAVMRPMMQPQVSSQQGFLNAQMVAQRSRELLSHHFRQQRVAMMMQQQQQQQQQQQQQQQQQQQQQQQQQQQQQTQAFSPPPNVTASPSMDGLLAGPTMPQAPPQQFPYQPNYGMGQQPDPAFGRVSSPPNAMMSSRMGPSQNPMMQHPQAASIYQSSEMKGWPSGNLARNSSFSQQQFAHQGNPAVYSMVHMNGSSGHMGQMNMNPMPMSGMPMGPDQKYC
Sequence of Peroxisome proliferator-activated receptor gamma/Nuclear receptor coactivator 1 (P37231 whole entry): as the sequence (P37231 whole entry) above
Sequence of Peroxisome proliferator-activated receptor gamma/Nuclear receptor coactivator 1 (Q15788 whole entry, further chain): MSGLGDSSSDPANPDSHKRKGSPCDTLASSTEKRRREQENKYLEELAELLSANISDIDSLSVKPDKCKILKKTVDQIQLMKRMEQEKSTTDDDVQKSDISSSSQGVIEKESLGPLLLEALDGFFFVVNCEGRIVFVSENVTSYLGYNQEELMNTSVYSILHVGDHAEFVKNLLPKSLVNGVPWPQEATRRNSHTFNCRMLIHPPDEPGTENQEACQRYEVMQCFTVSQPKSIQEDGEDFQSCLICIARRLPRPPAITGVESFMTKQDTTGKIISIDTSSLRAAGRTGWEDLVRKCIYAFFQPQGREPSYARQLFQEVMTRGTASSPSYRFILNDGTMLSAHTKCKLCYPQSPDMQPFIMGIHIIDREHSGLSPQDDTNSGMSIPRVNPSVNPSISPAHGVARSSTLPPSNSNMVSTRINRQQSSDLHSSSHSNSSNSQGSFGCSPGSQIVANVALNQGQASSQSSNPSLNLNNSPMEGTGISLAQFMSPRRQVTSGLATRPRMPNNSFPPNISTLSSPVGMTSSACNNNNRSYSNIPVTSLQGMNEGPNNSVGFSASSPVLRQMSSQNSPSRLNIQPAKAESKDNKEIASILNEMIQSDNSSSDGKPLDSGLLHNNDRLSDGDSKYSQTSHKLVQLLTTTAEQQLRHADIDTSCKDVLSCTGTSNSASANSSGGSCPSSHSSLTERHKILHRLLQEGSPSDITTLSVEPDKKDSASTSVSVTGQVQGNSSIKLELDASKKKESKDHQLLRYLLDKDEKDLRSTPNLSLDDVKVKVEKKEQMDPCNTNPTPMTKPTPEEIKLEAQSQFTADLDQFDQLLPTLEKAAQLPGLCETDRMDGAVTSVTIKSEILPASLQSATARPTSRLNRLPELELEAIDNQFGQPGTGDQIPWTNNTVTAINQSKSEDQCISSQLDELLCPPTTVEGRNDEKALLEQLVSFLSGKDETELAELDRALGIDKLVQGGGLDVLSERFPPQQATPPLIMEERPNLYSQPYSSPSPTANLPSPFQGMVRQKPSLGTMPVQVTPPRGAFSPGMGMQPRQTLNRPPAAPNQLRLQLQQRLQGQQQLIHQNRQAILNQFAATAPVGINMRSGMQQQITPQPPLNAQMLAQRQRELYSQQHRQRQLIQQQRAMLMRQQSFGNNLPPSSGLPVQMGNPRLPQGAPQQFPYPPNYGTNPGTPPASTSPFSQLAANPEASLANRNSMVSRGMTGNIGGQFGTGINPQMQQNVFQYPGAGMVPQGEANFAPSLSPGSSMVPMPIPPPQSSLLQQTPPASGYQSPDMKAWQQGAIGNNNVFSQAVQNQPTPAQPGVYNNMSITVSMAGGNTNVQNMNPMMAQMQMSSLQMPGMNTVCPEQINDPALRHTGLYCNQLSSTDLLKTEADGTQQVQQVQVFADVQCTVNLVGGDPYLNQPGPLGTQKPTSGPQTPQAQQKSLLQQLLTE
Sequence of Nonstructural protein 1 (Q194T2 whole entry): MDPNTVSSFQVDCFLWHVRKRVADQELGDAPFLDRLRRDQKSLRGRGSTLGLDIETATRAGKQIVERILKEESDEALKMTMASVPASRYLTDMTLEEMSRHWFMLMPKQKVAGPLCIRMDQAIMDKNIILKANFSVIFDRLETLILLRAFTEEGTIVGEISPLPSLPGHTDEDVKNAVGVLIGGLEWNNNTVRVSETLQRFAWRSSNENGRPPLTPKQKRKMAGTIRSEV
Sequence of Glyceraldehyde-3-phosphate dehydrogenase (P04406 whole entry): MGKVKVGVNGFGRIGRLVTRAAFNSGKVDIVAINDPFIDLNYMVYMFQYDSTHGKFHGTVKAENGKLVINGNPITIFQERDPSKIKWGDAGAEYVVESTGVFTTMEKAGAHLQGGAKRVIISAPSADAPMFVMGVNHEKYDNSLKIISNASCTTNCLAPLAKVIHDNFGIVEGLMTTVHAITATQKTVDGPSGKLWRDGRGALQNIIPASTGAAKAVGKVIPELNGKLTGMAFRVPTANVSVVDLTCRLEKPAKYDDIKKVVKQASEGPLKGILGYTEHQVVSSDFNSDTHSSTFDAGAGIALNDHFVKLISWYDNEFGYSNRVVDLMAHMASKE

Q: With COc1ccc2nc(SCc3cccnc3)c(C#N)cc2c1 as the molecule, how does the EC50 [1] read?
A: 22.1 µM (not active)

Q: What about the EC50 [2] of the same molecule?
A: 9.26 µM (active)

Q: And the EC50 [3]?
A: 9.56 µM (active)

Q: Which EC50 [1] does the source give for O=C(CSc1ncnc2c1oc1ccccc12)Nc1nc2ccccc2s1 here?
A: > 79.4 µM (not active)

Q: What about the EC50 [2] of the same molecule?
A: > 79.4 µM (not active)

Q: What about the EC50 [3] of the same molecule?
A: > 79.4 µM (inactive)

Q: Which IC50 [4] does the source give for Cc1c(C(=O)O)nnn1-c1ccc(F)cc1 here?
A: > 100 µM (not active)

Q: What about the IC50 [5] of the same molecule?
A: > 100 µM (inactive)

Q: For Nc1ccc2c3[nH]c4cc(N)ccc4cc-3nc2c1, which IC50 [6] is on record?
A: 21.1 µM (active)

Q: What about the AC50 [7] of the same molecule?
A: 7.72 µM (active)

Q: And the EC50 [8]?
A: > 54.7 µM (inactive)

Q: What about the AC50 [9] of the same molecule?
A: 0.758 µM (active)

Q: What about the EC50 [10] of the same molecule?
A: > 54.7 µM (inactive)

Q: What about the EC50 [11] of the same molecule?
A: > 54.7 µM (inactive)

Q: And the CC50 [12]?
A: 8.81 µM (active)

Q: What about the IC50 [13] of the same molecule?
A: 44.7 µM (active)

Q: And the IC50 [14]?
A: > 89.2 µM (inactive)
